Experimental data: ChEMBL document CHEMBL1201862, “PubChem BioAssay data set” (2004)
Active and inactive are the calls of the source.

Assays:
[1] = biological target: T1, Apoptotic protease-activating factor 1 (Homo sapiens, UniProt O14727); type: functional
T1 sequence (O14727 whole entry): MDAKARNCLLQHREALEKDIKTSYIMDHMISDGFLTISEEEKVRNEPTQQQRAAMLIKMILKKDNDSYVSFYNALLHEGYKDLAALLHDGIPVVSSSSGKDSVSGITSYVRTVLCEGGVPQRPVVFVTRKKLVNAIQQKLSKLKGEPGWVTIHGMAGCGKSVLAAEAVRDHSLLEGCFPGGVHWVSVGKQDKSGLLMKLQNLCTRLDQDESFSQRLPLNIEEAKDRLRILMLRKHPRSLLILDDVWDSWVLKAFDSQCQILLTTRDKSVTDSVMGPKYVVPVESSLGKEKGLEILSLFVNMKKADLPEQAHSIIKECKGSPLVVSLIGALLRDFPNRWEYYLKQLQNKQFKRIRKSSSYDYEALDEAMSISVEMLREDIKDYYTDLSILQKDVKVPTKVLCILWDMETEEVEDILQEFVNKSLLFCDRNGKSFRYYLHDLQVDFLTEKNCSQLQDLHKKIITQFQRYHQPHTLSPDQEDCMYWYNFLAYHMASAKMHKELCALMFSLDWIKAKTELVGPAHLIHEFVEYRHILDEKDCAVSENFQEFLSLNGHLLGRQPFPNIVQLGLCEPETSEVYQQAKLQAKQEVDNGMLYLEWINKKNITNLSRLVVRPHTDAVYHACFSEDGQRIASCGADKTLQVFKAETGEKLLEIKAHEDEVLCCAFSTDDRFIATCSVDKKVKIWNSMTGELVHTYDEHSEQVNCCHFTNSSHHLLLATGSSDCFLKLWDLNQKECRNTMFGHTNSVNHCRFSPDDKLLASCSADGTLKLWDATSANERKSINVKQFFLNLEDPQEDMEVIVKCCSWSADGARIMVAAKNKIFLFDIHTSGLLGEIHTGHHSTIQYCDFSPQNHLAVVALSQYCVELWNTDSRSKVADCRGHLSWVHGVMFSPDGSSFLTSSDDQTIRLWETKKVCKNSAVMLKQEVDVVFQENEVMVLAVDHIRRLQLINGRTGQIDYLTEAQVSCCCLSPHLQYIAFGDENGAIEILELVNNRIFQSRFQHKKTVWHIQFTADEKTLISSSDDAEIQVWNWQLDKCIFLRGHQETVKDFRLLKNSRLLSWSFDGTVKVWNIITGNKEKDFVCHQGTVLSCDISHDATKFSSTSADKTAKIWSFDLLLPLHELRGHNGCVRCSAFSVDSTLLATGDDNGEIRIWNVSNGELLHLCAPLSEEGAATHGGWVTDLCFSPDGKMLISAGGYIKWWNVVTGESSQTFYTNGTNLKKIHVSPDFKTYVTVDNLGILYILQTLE

[2] = Luminescence Cell-Based Dose Retest to Confirm Inhibitors of Cancer Stem Cells. [Related pubchem assays (depositor defined):AID2717, AID2721]; type: functional; conditions: Homo sapiens
[3] = system: INS1; test: beta cell apoptosis inhibitors, cytokine rescue, dose response, luminescence, retest (AID 449756); type: functional, cell-based; conditions: Rattus norvegicus;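 note: cell death triggered by IL-1 beta plus TNF-alpha plus IFN-gamma mixture; protective hits raise ATP signal compared with cytokine alone wells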
[4] = biological target: T2, Ubiquitin-conjugating enzyme E2 N (Homo sapiens, UniProt P61088); type: functional
T2 sequence (P61088 whole entry): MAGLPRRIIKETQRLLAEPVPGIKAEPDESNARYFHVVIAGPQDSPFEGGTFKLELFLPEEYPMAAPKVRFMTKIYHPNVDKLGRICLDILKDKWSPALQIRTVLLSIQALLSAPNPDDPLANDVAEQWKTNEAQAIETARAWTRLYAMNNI

[5] = biological target: T3, DNA repair protein RAD52 homolog (Homo sapiens, UniProt P43351); type: functional, biochemical
T3 sequence (P43351 whole entry): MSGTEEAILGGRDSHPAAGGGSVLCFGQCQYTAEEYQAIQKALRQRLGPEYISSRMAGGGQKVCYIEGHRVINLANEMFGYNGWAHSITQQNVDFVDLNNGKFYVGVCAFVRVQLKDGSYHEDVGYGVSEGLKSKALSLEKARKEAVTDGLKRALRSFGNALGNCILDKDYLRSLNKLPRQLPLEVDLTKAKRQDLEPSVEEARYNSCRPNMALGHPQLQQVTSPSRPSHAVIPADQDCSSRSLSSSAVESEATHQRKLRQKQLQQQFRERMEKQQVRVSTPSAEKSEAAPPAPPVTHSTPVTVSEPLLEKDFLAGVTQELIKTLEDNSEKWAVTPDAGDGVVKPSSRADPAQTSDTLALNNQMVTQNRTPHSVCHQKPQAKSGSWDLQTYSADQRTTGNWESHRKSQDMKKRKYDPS

[6] = system: Jurkat; test: antigen receptor-induced NF-kB inhibitors, dose response, Jurkat, luciferase reporter, luminescence, B- and T-cell (AID 489004); type: functional, cell-based; conditions: Homo sapiens;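 note: NF-kB luciferase reporter Jurkat cells stimulated with PMA plus ionomycin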
[7] = C. albicans growth with fluconazole, confirmation, fluorescence, retest (AID 2467); type: functional, cell-based
[8] = NIH-3T3 fibroblast cytotoxicity, dose response, cytotoxicity control, cell-based, fluorescence, Alamar Blue, secondary assay (AID 2327); type: functional;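 note: NIH-3T3 mouse fibroblasts cultured with fluconazole at 8 µg/mL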
[9] = cytotoxicity in HEK-293T NF-kB-Luc cells, dose response, cytotoxicity control for B/T-cell NF-kB inhibitor project, cell-based, uHTS hits (AID 489019); type: functional;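 note: IC50 reflects cytotoxicity as loss of cell viability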
[10] = THP-1 cell cytotoxicity, dose response, cytotoxicity control for Vif-APOBEC3G degradation inhibitor project, THP-1 cells (AID 1117359); type: functional; conditions: Human immunodeficiency virus 1, THP-1
[11] = biological target: T4, Coagulation factor XII (Homo sapiens, UniProt P00748); type: functional;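 note: activated factor XIIa alpha cleaving a fluorogenic AMC peptide substrate; inhibitor potency from loss of enzyme activity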
T4 sequence (P00748 whole entry): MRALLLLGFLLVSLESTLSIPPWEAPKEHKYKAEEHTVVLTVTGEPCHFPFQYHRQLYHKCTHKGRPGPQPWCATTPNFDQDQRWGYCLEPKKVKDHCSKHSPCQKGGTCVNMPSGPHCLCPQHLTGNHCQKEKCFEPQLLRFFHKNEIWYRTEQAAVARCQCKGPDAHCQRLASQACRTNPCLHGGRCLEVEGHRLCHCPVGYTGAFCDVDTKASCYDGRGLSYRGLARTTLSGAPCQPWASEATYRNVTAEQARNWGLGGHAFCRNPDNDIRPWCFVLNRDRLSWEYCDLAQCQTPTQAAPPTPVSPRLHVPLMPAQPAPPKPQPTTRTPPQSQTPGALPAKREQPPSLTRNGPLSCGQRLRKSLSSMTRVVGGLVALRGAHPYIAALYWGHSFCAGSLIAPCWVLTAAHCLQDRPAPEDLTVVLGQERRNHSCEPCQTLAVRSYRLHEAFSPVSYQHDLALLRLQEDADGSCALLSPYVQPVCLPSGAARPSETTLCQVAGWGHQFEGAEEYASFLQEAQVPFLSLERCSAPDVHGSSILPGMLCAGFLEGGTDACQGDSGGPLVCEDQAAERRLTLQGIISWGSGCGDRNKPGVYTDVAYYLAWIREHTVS

[12] = system: HEK293; test: HEK cell cytotoxicity by LDH release, dose response, cytotoxicity control for IDE activator project, fluorescence, HEK cells (AID 588440); type: functional, cell-based; conditions: Homo sapiens;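 note: cytotoxicity by LDH release measuring loss of membrane integrity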
[13] = system: HEK293; test: optical interference in Abeta FP readout, dose response, artefact control for IDE activator project, biochemical, fluorescence polarization (AID 588442); type: functional, cell-based; conditions: Homo sapiens
[14] = biological target: T5, Insulin-degrading enzyme (Homo sapiens, UniProt P14735); test: activators of endogenous IDE in HEK cells, dose response, cell-based, fluorescence polarization (AID 588439); type: functional
T5 sequence (P14735 whole entry): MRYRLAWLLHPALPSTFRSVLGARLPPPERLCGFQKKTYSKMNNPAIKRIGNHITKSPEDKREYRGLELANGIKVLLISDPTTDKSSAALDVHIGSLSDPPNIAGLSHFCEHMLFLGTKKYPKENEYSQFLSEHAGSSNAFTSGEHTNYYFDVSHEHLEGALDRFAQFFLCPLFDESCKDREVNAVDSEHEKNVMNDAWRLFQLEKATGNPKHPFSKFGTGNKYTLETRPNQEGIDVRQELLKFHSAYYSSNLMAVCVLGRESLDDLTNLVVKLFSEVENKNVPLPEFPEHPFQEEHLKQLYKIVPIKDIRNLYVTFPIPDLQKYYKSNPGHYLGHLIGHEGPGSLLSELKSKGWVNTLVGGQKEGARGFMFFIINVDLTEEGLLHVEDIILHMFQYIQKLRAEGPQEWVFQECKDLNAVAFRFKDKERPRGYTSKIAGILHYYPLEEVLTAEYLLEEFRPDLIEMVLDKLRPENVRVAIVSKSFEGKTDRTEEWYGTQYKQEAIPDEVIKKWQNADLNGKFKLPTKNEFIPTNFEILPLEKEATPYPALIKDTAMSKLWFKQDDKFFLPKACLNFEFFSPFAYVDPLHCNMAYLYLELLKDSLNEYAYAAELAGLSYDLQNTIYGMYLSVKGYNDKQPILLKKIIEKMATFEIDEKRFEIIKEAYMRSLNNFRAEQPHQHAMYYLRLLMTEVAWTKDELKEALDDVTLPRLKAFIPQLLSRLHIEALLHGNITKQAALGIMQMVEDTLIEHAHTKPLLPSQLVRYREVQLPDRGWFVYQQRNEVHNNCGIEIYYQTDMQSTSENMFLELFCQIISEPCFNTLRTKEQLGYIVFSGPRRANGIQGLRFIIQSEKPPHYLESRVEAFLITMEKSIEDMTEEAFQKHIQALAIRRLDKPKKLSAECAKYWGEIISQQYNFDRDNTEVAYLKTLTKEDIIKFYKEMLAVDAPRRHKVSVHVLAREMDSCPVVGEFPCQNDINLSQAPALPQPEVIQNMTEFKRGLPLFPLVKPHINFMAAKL

[15] = biological target: T2, Ubiquitin-conjugating enzyme E2 N; type: functional; remark: listed apart in the source
[16] = biological target: T5, Insulin-degrading enzyme; test: activators of recombinant IDE enzyme, dose response, counter-screen for IDE activator project, biochemical, fluorescence polarization (AID 588681)
[17] = biological target: T6, Bcl-2-related protein A1 (Mus musculus, UniProt Q07440); type: functional;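 note: confirmatory dose–response counterscreen on Bfl-1, used to check hits from a UBC13 polyubiquitin inhibitor campaign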
T6 sequence (Q07440 whole entry): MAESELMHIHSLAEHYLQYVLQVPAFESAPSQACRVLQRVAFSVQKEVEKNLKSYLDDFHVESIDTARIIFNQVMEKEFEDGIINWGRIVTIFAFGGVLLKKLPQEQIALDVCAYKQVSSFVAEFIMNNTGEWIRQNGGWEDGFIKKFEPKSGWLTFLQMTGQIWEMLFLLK

[18] = miR-122 activators in hepatoma reporter cells, dose response, cell-based, Huh7 psiCHECK-miR122, Renilla luciferase, cherry-picked (AID 651956); type: functional;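 note: huh7 hepatoma cells stably carrying a psiCHECK-2 miR-122 sensor plasmid; renilla luciferase signal reporting endogenous miR-122 activity after 48 h compound exposure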
[19] = HEK293T cytotoxicity, dose response, cytotoxicity control for miR-122 modulator project, cell-based, activator set, cherry-pick (AID 720690); type: functional;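 note: HEK293T human cells scored for general mammalian cytotoxicity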
[20] = microbe, parasite or virus in culture; type: functional; conditions: Mycobacterium tuberculosis
[21] = biological target: DNA dC->dU-editing enzyme APOBEC-3G (Homo sapiens, UniProt Q9HC16); test: APOBEC3G deaminase inhibitors, SAR follow-up, biochemical, fluorescence, single-stranded DNA substrate (AID 602136); type: functional; conditions: read-out: IC50_Mean
[22] = biological target: DNA dC->dU-editing enzyme APOBEC-3A (Homo sapiens, UniProt P31941); test: SAR analysis of small molecule inhibitors of APOBEC3A DNA Deaminase via a fluorescence-based single-stranded DNA deaminase assay.; type: functional; conditions: read-out: IC50_Mean
[23] = A Cell Based Secondary Assay To Explore Cytotoxicity of Compounds that Sensitize Mycobacterium Tuberculosis to Beta-Lactam Antibiotics.; type: functional
[24] = biological target: Luciferin 4-monooxygenase (Photinus pyralis, UniProt P08659); test: firefly luciferase enzyme inhibitors, dose response, biochemical, luminescence (AID 1891)
[25] = Luminescence Cell-Based Dose Confirmation HTS to Identify Inhibitors of Platelet Dense Granule Release. [Related pubchem assays: 1663 (Primary HTS), 1678 (Summary of Project)]; type: functional

Chain of DNA dC->dU-editing enzyme APOBEC-3G (Q9HC16 whole entry): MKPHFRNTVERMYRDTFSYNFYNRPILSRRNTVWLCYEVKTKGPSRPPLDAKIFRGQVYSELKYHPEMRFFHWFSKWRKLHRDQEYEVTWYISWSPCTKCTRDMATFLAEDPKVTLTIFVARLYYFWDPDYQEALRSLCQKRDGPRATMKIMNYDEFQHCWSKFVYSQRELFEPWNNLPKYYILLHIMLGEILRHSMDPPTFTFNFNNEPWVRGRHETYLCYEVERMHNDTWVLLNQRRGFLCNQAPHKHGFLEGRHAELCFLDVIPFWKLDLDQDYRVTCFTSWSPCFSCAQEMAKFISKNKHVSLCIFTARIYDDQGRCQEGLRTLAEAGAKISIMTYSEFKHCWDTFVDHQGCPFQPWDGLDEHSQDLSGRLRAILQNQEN
Chain of DNA dC->dU-editing enzyme APOBEC-3A (P31941 whole entry): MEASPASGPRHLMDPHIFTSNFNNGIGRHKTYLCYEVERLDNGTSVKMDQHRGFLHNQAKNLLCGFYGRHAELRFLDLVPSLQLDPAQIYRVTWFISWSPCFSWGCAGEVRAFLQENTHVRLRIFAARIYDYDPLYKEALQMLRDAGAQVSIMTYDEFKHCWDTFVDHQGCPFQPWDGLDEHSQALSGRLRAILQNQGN
Chain of Luciferin 4-monooxygenase (P08659 whole entry): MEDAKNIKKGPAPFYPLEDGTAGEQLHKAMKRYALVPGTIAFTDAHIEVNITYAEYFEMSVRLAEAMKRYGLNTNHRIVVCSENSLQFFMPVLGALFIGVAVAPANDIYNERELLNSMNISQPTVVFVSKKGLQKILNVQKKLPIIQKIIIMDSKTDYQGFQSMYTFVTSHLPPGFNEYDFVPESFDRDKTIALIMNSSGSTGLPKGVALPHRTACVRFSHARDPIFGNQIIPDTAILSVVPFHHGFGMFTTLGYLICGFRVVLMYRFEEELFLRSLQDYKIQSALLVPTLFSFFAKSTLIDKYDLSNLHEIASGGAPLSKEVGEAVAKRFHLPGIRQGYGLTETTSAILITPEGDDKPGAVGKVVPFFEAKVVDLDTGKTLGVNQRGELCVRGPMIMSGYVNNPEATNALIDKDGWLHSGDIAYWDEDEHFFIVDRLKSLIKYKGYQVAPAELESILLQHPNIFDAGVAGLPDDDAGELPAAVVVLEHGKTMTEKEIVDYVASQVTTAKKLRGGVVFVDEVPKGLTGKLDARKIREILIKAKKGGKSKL

CCCCCc1ccc(OCCCC[n+]2cccc(C)c2)c(CCCCC)c1
IC50 [1]: 28.5 µM (active) | AC50 [2]: 0.694 µM (active) | AC50 [3]: 1.64 µM (active) | IC50 [4]: > 20 µM (inactive) | AC50 [5]: 15.1 µM (active) | IC50 [6]: 4.68 µM (active) | EC50 [7]: 0.755 µM (active) | EC50 [8]: > 150 µM (inactive) | IC50 [9]: 68.8 µM (inactive)

CN(C)CCNc1ncnc2c1sc1nc(-c3ccccc3)c3c(c12)CCCC3
CC50 [10]: 31.1 µM (active) | IC50 [11]: > 50 µM (inactive) | IC50 [12]: 10.4 µM (inactive) | EC50 [13]: > 54.7 µM (inactive) | EC50 [14]: 21.7 µM (inactive) | IC50 [15]: 7.72 µM (active) | EC50 [16]: > 54.7 µM (inactive) | IC50 [4]: 13 µM (active) | IC50 [17]: > 20 µM (inactive) | AC50 [18]: 19.4 µM (active) | AC50 [5]: 6.93 µM (active) | AC50 [19]: 16.2 µM (active) | CC50 [20]: 7.38 µM (active)

Cn1c(SCC(N)=O)nnc1-c1sc2cc(Cl)ccc2c1Cl
IC50 [21]: > 99 µM (inactive) | IC50 [22]: > 99 µM (inactive)

O=C1N/C(=C\c2ccc(O)cc2)C(=O)c2ccccc21
CC50 [23]: > 40 µM (active) | IC50 [1]: 3.21 µM (active) | EC50 [24]: 0.661 µM (active) | EC50 [25]: 1.15 µM (active)

CC(C)Cn1c(=O)c2cc(Cl)ccc2n2c(SCc3ccc(Cl)cc3)nnc12
IC50 [21]: > 99 µM (inactive) | IC50 [22]: > 99 µM (inactive)

CC(=O)Nc1ccc(NC(=O)COC(=O)c2[nH]nc3ccccc23)cc1
IC50 [12]: > 89.2 µM (inactive) | EC50 [13]: > 54.7 µM (inactive) | EC50 [14]: > 54.7 µM (inactive) | EC50 [16]: > 54.7 µM (inactive)
